Test results as given in US5270182A, “Antibiotic compounds and their production” (Hoechst Aktiengesellschaft, priority 1991, dated 1993).

Key:
[1] = tested on: streptococci; assay: treatment of experimental animals infected with streptococci; format: in vivo
[2] = Solubility; format: physicochemical
[3] = tested on: Staph. epidermidis 825; assay: MIC, agar-dilution method in Mueller-Hinton agar; format: cell-based; conditions: Staphylococcus epidermidis, Teicoplanin resistant, methicillin resistant
Text: (§1) Compound M901809 and its acid hydrolysis product M901809H are active against gram-positive bacteria.
(§2) c = Teicoplanin resistant
(§3) Strains 5 to 26 are methicillin resistant staphylococci.

[4] = tested on: Staph. epidermidis 823; assay: MIC, agar-dilution method in Mueller-Hinton agar; format: cell-based; conditions: Staphylococcus epidermidis, Teicoplanin resistant, methicillin resistant
Text: as §1, §2, §3

[5] = tested on: Staph. aureus 20424; assay: MIC, agar-dilution method in Mueller-Hinton agar; format: cell-based; conditions: Staphylococcus aureus, Erythromycin resistant
Text: as §1
a = Erythromycin resistant

[6] = tested on: Ent. faecium van R1; assay: MIC, agar-dilution method in Mueller-Hinton agar; format: cell-based; conditions: Enterococcus faecium, VANR1
Text: as §1, §2
d = Vancomycin resistant

[7] = tested on: Staph. aureus 710; assay: MIC, agar-dilution method in Mueller-Hinton agar; format: cell-based; conditions: Staphylococcus aureus, methicillin resistant
Text: as §1, §3

[8] = tested on: Staph. aureus 011UC5; assay: MIC, agar-dilution method in Mueller-Hinton agar; format: cell-based; conditions: Staphylococcus aureus, methicillin resistant
Text: as §1, §3

[9] = tested on: Staph. epidermidis 178; assay: MIC, agar-dilution method in Mueller-Hinton agar; format: cell-based; conditions: Staphylococcus epidermidis, methicillin resistant
Text: as §1, §3

[10] = tested on: Staph. haemolyticus 809; assay: MIC, agar-dilution method in Mueller-Hinton agar; format: cell-based; conditions: Staphylococcus haemolyticus
Text: as §1, §3

[11] = tested on: Staph. aureus C 31153; assay: MIC, agar-dilution method in Mueller-Hinton agar; format: cell-based; conditions: Staphylococcus aureus, C31153, methicillin resistant
Text: as §1, §3

[12] = tested on: Staph. aureus 712; assay: MIC, agar-dilution method in Mueller-Hinton agar; format: cell-based; conditions: Staphylococcus aureus, methicillin resistant
Text: as §1, §3

[13] = tested on: Staph. aureus 722; assay: MIC, agar-dilution method in Mueller-Hinton agar; format: cell-based; conditions: Staphylococcus aureus, methicillin resistant
Text: as §1, §3

[14] = tested on: Staph. haemolyticus 712; assay: MIC, agar-dilution method in Mueller-Hinton agar; format: cell-based; conditions: Staphylococcus haemolyticus
Text: as §1, §3

[15] = tested on: Staph. aureus E 121; assay: MIC, agar-dilution method in Mueller-Hinton agar; format: cell-based; conditions: Staphylococcus aureus, E121, methicillin resistant
Text: as §1, §3

[16] = tested on: Staph. aureus 694; assay: MIC, agar-dilution method in Mueller-Hinton agar; format: cell-based; conditions: Staphylococcus aureus, methicillin resistant
Text: as §1, §3

[17] = tested on: Staph. epidermidis 291; assay: MIC, agar-dilution method in Mueller-Hinton agar; format: cell-based; conditions: Staphylococcus epidermidis, methicillin resistant
Text: as §1, §3

[18] = tested on: Staph. aureus 725; assay: MIC, agar-dilution method in Mueller-Hinton agar; format: cell-based; conditions: Staphylococcus aureus, methicillin resistant
Text: as §1, §3

[19] = tested on: Staph. aureus 706; assay: MIC, agar-dilution method in Mueller-Hinton agar; format: cell-based; conditions: Staphylococcus aureus, methicillin resistant
Text: as §1, §3

[20] = tested on: Staph. epidermidis 607; assay: MIC, agar-dilution method in Mueller-Hinton agar; format: cell-based; conditions: Staphylococcus epidermidis, methicillin resistant
Text: as §1, §3

[21] = tested on: Staph. aureus 789; assay: MIC, agar-dilution method in Mueller-Hinton agar; format: cell-based; conditions: Staphylococcus aureus, methicillin resistant
Text: as §1, §3

[22] = tested on: Staph. epidermidis 109; assay: MIC, agar-dilution method in Mueller-Hinton agar; format: cell-based; conditions: Staphylococcus epidermidis, methicillin resistant
Text: as §1, §3

[23] = tested on: Staph. aureus E 88; assay: MIC, agar-dilution method in Mueller-Hinton agar; format: cell-based; conditions: Staphylococcus aureus, E88, methicillin resistant
Text: as §1, §3

[24] = tested on: Staph. epidermidis 2 Tub; assay: MIC, agar-dilution method in Mueller-Hinton agar; format: cell-based; conditions: Staphylococcus epidermidis, methicillin resistant
Text: as §1, §3

[25] = tested on: Staph. aureus 690; assay: MIC, agar-dilution method in Mueller-Hinton agar; format: cell-based; conditions: Staphylococcus aureus, methicillin resistant
Text: as §1, §3

[26] = tested on: Staph. aureus Co. 1; assay: MIC, agar-dilution method in Mueller-Hinton agar; format: cell-based; conditions: Staphylococcus aureus, methicillin resistant
Text: as §1, §3

[27] = tested on: Ent. faecalis 3903; assay: MIC, agar-dilution method in Mueller-Hinton agar; format: cell-based; conditions: Enterococcus faecalis
Text: as §1

[28] = tested on: Staph. aureus 20240; assay: MIC, agar-dilution method in Mueller-Hinton agar; format: cell-based; conditions: Staphylococcus aureus, lactam resistant
Text: as §1

[29] = tested on: Ent. faecalis 782; assay: MIC, agar-dilution method in Mueller-Hinton agar; format: cell-based; conditions: Enterococcus faecalis
Text: as §1

[30] = tested on: Ent. faecalis 26777; assay: MIC, agar-dilution method in Mueller-Hinton agar; format: cell-based; conditions: Enterococcus faecalis
Text: as §1

[31] = tested on: Ent. faecalis 21777; assay: MIC, agar-dilution method in Mueller-Hinton agar; format: cell-based; conditions: Enterococcus faecalis
Text: as §1

[32] = tested on: Ent. faecalis D 65; assay: MIC, agar-dilution method in Mueller-Hinton agar; format: cell-based; conditions: Enterococcus faecalis, D65
Text: as §1

[33] = tested on: Ent. faecalis UD8b; assay: MIC, agar-dilution method in Mueller-Hinton agar; format: cell-based; conditions: Enterococcus faecalis
Text: as §1

[34] = tested on: Ent. faecalis 734; assay: MIC, agar-dilution method in Mueller-Hinton agar; format: cell-based; conditions: Enterococcus faecalis
Text: as §1

[35] = tested on: Staph. aureus 3066; assay: MIC, agar-dilution method in Mueller-Hinton agar; format: cell-based; conditions: Staphylococcus aureus
Text: as §1

[36] = tested on: Ent. faecalis Eder; assay: MIC, agar-dilution method in Mueller-Hinton agar; format: cell-based; conditions: Enterococcus faecalis
Text: as §1

[37] = tested on: Staph. aureus 209 P; assay: MIC, agar-dilution method in Mueller-Hinton agar; format: cell-based; conditions: Staphylococcus aureus
Text: as §1

[38] = tested on: gram-positive bacteria; assay: activity against gram-positive bacteria; format: cell-based
Text: as §1

[39] = tested on: staphylococci; assay: treatment of experimental animals infected with staphylococci; format: in vivo

CCCC1Cc2cc3c(c(O)c2C(=O)O1)-c1c(c(OC)c2oc4c(OC5CC(O)C(OC6CC(O)C(OC7CC(OC)C(O)C(C)O7)C(C)O6)C(C)O5)ccc(O)c4c(=O)c2c1O)C(O)C3O (centres unmarked) [M901809]
0.2 µg/mL: MIC [5] | MIC [7] | MIC [9] | MIC [12] | MIC [13] | MIC [14] | MIC [15] | MIC [16] | MIC [17] | MIC [19] | MIC [23] | MIC [24] | MIC [25] | MIC [28] | MIC [35]
0.4 µg/mL: MIC [4] | MIC [10] | MIC [20] | MIC [22] | MIC [27] | MIC [29] | MIC [30] | MIC [31] | MIC [34] | MIC [36]
Poor to moderate: Solubility ([2]; in CH3CN) | Solubility ([2]; in MeOH) | Solubility ([2]; in ethyl acetate)
Very soluble: Solubility ([2]; in CH2Cl2) | Solubility ([2]; in CHCl3) | Solubility ([2]; in DMSO)
Insoluble: Solubility ([2]; in H2O) | Solubility ([2]; in hexane) | Solubility ([2]; in petroleum ether (40-60° C.))
0.8 µg/mL: MIC [3] | MIC [33]
active: activity in treatment of infected experimental animals [1] | activity against gram-positive bacteria [38] | activity in treatment of infected experimental animals [39]
0.1 µg/mL: MIC [8] | MIC [11] | MIC [18] | MIC [21] | MIC [26] | MIC [37]
1.6 µg/mL: MIC [6] | MIC [32]
